Experimental data as given in publication PMC6093661, “Vitamin E hydroquinone is an endogenous regulator of ferroptosis via redox control of 15-lipoxygenase” (PLoS ONE, 2018).
Where “and” joins values, the source holds several entries; their conditions need not be identical. Equal entries are not always repeated. Where two headings read alike, the source gives them in different places.

Key:
[1] = tested on: Q7 cells; experiment: Cellular quantification of αTCC in Q7 cells (LC-MS/MS, succinate capping); format: in vitro ADME, mouse; details: 6 technical replicates in each of 4 experiments
Method: Due to poor ionization of αTCC, the succinate capping method was used for quantification of the succinate ester derivative formed by cell lysis with 100 mg/mL succinic anhydride in 95:5 (acetonitrile:triethylamine).
Q7 cells were cultured in standard culture medium for 18 hours prior to compound addition. After the specified treatment time, the culture medium was removed and adherent cells were washed with PBS. The wash was removed and adherent cells were harvested by adding 1 mL of 100 mg/mL succinic anhydride in 95:5 (acetonitrile:triethylamine) followed by immediate cell scrapping. After cell scrapping, samples were transferred to a 1.5 mL Eppendorf tube, vortexed for 15 seconds, and kept on wet ice until all samples were harvested. […]
Samples were analyzed using a developed method on a Shimadzu 30AD using micro-flow with a Shimadzu SIL-30AC autosampler, and coupled to an AB Sciex 6500+ QTRAP mass spectrometer. […] Analyzer parameters were optimized for each compound using a combination of manual tuning and compound optimization. αTCC was measured as αTCC-succinate. […]
A Phenomenex Kinetex C18 (2.1 x 50 mm, 1.3 µm) column using a reverse phase gradient mobile phase method was used for chromatographic separation. […] Data were analyzed using Sciex Analyst Chromatography software, version 1.6.2 and Sciex MultiQuant software. […]

[2] = Radical-trapping antioxidant (RTA) activity assay in DOPC liposomes; details: for Radical Trapping Assay AUC (Rel. Control): 50 μM compound, 2 mol% in DOPC liposomes, BODIPY 581/591 C11 quenching, liposome-only control = 1
[3] = tested on: Mouse striatal Q7 cells (STHdhQ7/Q7); experiment: RSL3 ferroptosis cell rescue (cellular survival assay, CellTiter-Glo)
[4] = target: T1, Rabbit 15-lipoxygenase (rLOX15) (Oryctolagus cuniculus, UniProt P12530); experiment: Lipoxygenase enzyme inhibition assay; format: biochemical; details: for inhibition of rabbit 15-LO enzyme activity: arachidonic acid as substrate, up to 100 μM; for IC50 / activity at 100 µM: rabbit 15-LO; for IC50: 50 μM arachidonic acid substrate; for activity at 100 µM: compound 100 μM, read-out: 15-Lipoxygenase Enzyme Assay % activity at 100 μM
T1 construct: purchased Enzo Life Sciences, Inc. BML-PL015
T1 sequence (P12530 1-663): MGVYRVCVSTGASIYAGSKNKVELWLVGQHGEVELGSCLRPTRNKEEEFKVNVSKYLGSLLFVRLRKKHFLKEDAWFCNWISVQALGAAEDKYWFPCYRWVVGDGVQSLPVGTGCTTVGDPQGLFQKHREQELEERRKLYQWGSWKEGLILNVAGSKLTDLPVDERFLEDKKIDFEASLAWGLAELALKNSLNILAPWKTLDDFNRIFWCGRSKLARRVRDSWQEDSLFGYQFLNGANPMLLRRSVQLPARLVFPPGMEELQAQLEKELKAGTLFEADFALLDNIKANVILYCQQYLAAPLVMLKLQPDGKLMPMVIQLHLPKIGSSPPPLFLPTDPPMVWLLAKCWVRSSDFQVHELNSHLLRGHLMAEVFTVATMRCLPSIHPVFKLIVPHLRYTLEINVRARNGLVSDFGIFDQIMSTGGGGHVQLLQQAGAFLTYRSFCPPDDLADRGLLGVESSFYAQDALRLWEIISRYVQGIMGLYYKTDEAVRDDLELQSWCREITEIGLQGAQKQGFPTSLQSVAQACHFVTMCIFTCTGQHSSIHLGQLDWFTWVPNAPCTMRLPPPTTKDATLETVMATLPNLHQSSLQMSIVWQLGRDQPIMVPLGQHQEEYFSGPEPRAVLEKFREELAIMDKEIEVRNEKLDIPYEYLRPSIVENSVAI
Method: Rabbit 15-lipoxygenase (rLOX15, part number BML-PL015, lot number 3-P9009a) was obtained from Enzo Life Sciences, Inc. Sodium cholate (part number C6445, lot number 094K0209) was obtained from Sigma-Aldrich.
Stock solutions of test compounds were prepared in DMSO and then diluted to final assay concentrations in cholate mix such that final cholate and DMSO concentrations were maintained at 0.2%.

[5] = ORAC (oxygen radical absorbance capacity) assay; details: average of 25 and 12.5 μM compound; mean, SEM, n = 6
Method: ORAC assay kits were purchased from Cell Biolabs. Assays were performed per the manufacturer’s instructions for lipophilic samples with minor modifications. DMSO stock solutions of compounds were diluted in an anaerobic glovebox to final concentrations of 25 and 12.5 μM in triplicate. A standard curve of Trolox® between 0–100 μM in triplicate per concentration was also generated on each assay plate. Diluted compounds and standards were removed from the glovebox and reactions initiated by addition of aerobic fluorescein reagent and radical initiator. Fluorescein fluorescence was monitored at excitation wavelength of 480 nm and emission wavelength of 520 nm every minute for one hour. AUC analysis was performed as described in the kit protocol. The “Trolox equivalents” at each concentration of test compound were calculated and the average Trolox equivalents at the two compound concentrations are presented. The errors were determined by propagating errors from the SEMs of the triplicate determinations to the averages across the two triplicate determinations.

[6] = tested on: Q7 cells; experiment: Cellular lipid oxidation assay (BODIPY 581/591 C11, RSL3-treated Q7 cells); format: cell-based, mouse; details: RSL3 2 μM, 6-point titration, time-lapse microscopy
Method: Ferroptosis was induced by RSL3 (2 μM final concentration) in Q7 cells as described above. The protective activity of co-treated compounds was assessed also as described above. The rate of cellular lipid oxidation after GPX4 inhibition was assessed by monitoring the time-dependent changes in green fluorescence of cells pre-labeled with BODIPY™ 581/591 C11 dye (5 μM, 30-minute labeling period; Thermo Fisher/Invitrogen) using the IncuCyte S3 live-cell imaging apparatus (Sartorius) using a 10x objective. Cells (three images per field; at least three replicate wells per condition) were imaged once hourly for up to 18 hours after compound and RSL3 addition. Quantification of cell images was performed using the IncuCyte Zoom software using the Basic Analyzer tool which utilized an algorithm that calculated the total green-positive area per well where “green-positive” was defined as 1.45 times the local background-subtracted fluorescent signal. After a 2-3-hour lag period post-RSL3 treatment, the cellular green fluorescence signal began increasing. The rate of change in total green-positive area per well from 3–9 hours post-compound treatment was calculated, then expressed relative to that observed in the RSL3-only control treatment group, which was defined as 100%.

[7] = tested on: 15-HETE release from Q7 cells; experiment: Targeted arachidonate metabolite release cellular assay (RSL3-treated Q7 cells); format: cell-based, mouse
Method: Ferroptosis was initiated by RSL3 (2 μM final concentration) in Q7 cells as described above. The protective activity of co-treated compounds was assessed also as described above. Four to five hours after RSL3 treatment, the conditioned medium was collected into 1.2-mL cluster tubes containing ice-cold acetonitrile at a ratio of 1:2. Tubes were snap frozen on dry ice and stored at -80°C.
Prior to analysis, samples were thawed on wet ice and then vortexed briefly. Samples were centrifuged at 4000 rpm for 15min at 4°C. Supernatant (40 μL) was transferred to a 96-well injection plate and 10 μL of both internal standard and HPLC grade water were added. A Shimadzu Nexera MP system coupled to a Sciex 6500 Qtrap and configured for micro-flow was used to analyze all samples. Samples were maintained at 4°C in the Nexera MP autosampler for the duration of the analytical run.
A Thermo Gold-C8 column (1.9 μm, 1.0 x 100 mm) operated at 45°C was used for chromatographic separation. The total run time of the liquid chromatography method was 10 min. Mobile phase A consisted of water with 0.1% formic acid. Mobile phase B was composed of 0.1% formic acid in 3:1 acetonitrile:isopropyl alcohol. Gradient elution was employed, with mobile phase B being ramped from 5% at 0min, to 50% at 2 min, and finally 98% at 7.5 min. Electrospray conditions for the μLC-ESI-MS/MS method were optimized for a flow rate of 125 μL/min and were as follows: Ion spray voltage was set to -4500 V, temperature of 250°C, curtain gas of 20, CAD gas of 10, and ion source gas 1 and 2 of 20 and 40 psi, respectively. Analyzer parameters were optimized for each compound using a combination of manual tuning and compound optimization. The following MRM transitions were used to quantify concentrations of 15-HETE, 12-HETE and Arachidonic Acid (AA). 15-HETE: 319→219; 12-HETE: 319→179; AA: 303→259.

[8] = tested on: Q7 cells; details: mouse
[9] = tested on: Q7 cells; experiment: Intracellular quantification of αT, αTQ and αTHQ in Q7 cells (LC-MS/MS, succinate capping); details: αTQ 10 μM, 24 h
[10] = Mus musculus, 18 h, read-out: RSL3 Ferroptosis Cell Assay Average EC50, Q7 cells, RSL3 2 μM, 18 h co-treatment, CellTiter-Glo 2.0

Compound | cellular exposure of αTCC [1] | Radical Trapping Assay AUC (Rel. Control) [2] | RTA AUC fold greater than αTQ and αTHQ ([2]; DOPC liposomes, AUC relative to liposome only control) | EC50 [3, 10] | rescue at 30 μM ([3]; Q7 cells, RSL3 2 μM, 30 μM highest concentration tested, mean ± SD, N = 7) | inhibition of rabbit 15-LO enzyme activity [4] | IC50 [4] | activity at 100 µM [4] | ORAC Antioxidant Activity Assay Trolox Equiv. [5] | effect on RSL3-induced lipid oxidation (BODIPY 581/591 C11 oxidation) [6] | IC50 ([7]; Mus musculus, RSL3 2 μM, conditioned medium 4-5 h, read-out: IC50 for RSL3-induced cellular release of 15-HETE) | effect on 12-HETE levels ([7]; RSL3, compound 5 μM) | effect on cellular or released AA levels ([7]; RSL3, compound 5 μM) | effect on RSL3-dependent induction of cellular and released 15-HETE ([7]; compound 5 μM) | fold more potent than αT in preventing ferroptotic cell death ([3]; Q7 cells, RSL3, EC50 ratio vs αT) | EC50 ([3]; read-out: RSL3 Ferroptosis Cell Assay Average EC50, Q7 cells, RSL3 2 μM, 18 h co-treatment, CellTiter-Glo 2.0) | fold increase in cellular αTHQ after αTQ supplementation [8] | fold increase in cellular αTQ after αTQ supplementation [8] | cellular exposure of αT after αTQ supplementation (back-conversion) [9] | cellular αTQ exposure after αTQ supplementation [9]
Cc1c(C)c2c(c(C)c1O)CCC(C)(CCCC(C)CCCC(C)CCCC(C)C)C2 (centres unmarked) [αTCC, 1,3,4,6-Tetramethyl-6-(4,8,12-trimethyltridecyl)-5,6,7,8-tetrahydronaphthalen-2-ol] | > 50 µM | 4.706 | 2.5–4 fold | > 30000 nM | 42 ± 21% | did not | > 100000 nM | 77% | 0.075 Trolox Equiv. and 0.075 ± 0.008 Trolox Equiv. | – | – | – | – | – | – | – | – | – | – | –
CC1=C(C)C(=O)C(CC[C@](C)(O)CCC[C@H](C)CCC[C@H](C)CCCC(C)C)=C(C)C1=O [αTQ, α-tocopherol quinone] | – | 1.217 | – | 233 nM | – | did not | > 100000 nM | 75% | 0.044 Trolox Equiv. | prevented | 600 nM | not altered | no effect | inhibited | 22 fold | 230 ± 100 nM | > 600 fold | > 300 fold | unaffected | over 250 μM
